The text below walks through data of US12441736B2, “KIF18A inhibitors” (AMGEN INC., priority 2018, dated 2025).

pIC50: −log10 of the molar value.

For this assay, the target named is T1, Recombinant human KIF18A (1-467 His-tagged) protein (Homo sapiens, UniProt Q8NI77).
T1 construct: Recombinant human KIF18A (1-467 His-tagged) protein; His; made in house
T1 sequence (Q8NI77 1-467): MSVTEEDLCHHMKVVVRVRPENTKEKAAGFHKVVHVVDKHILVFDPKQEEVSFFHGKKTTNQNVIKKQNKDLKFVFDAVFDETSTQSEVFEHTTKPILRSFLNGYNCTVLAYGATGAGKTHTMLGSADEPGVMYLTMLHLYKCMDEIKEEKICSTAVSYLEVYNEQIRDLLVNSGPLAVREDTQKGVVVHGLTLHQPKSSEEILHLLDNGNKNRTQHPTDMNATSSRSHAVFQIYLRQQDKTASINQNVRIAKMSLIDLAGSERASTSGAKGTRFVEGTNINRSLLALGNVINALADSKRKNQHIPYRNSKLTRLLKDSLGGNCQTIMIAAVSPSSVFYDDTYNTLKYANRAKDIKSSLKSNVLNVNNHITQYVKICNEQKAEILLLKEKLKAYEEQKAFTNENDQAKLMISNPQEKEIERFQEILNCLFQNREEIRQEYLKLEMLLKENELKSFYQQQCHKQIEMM
T1 sequence (P02550 whole entry partner): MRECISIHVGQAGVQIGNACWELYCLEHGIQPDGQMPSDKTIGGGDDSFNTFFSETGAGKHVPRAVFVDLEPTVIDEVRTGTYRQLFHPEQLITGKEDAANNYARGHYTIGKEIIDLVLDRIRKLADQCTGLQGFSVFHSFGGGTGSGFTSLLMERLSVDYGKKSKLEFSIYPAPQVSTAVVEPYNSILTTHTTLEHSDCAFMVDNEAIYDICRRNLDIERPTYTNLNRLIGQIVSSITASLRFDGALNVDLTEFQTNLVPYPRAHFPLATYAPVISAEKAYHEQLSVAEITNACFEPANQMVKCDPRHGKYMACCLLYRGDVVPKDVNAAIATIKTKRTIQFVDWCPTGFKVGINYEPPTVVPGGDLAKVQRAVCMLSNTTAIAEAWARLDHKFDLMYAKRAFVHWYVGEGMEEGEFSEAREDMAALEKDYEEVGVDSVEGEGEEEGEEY
T1 sequence (P02554 whole entry partner): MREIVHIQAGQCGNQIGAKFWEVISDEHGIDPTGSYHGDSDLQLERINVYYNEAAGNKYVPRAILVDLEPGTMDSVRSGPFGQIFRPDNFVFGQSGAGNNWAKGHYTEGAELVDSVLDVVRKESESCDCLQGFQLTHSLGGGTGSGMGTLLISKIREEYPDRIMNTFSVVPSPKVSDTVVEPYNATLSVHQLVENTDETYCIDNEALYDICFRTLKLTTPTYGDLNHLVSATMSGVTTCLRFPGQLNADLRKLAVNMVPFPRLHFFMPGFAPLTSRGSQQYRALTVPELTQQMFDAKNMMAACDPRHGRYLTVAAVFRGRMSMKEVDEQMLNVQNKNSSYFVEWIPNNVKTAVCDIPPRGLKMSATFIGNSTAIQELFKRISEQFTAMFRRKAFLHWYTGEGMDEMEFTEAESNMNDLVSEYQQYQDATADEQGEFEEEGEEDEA
Description: KIF18A Enzyme Assay: microtubule-stimulated ATPase activity (ADP-Glo). It counts as biochemical. The settings on record: 30 nM KIF18A, 30 μg/mL pig microtubules, 75 μM ATP, ADP-Glo luminescence. The procedure, abridged: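 His-tagged human KIF18A (1-467, baculovirus), 30 nM, pre-incubated 15 min with compound in Tris pH 7.5 containing 30 μg/mL taxol-stabilised pig microtubules. ATP was then added at Km (75 μM) for 15 min at room temperature. ADP was measured by ADP-Glo luminescence, and IC50 was fitted by 4-parameter logistic over 22 points.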
Consider `CNS(=O)(=O)c1ccc(C(=O)Nc2cccc(N3CCO[C@H](C)C3)n2)c(N2CCC3(CC2)CC3)n1` [Example 223, (R)-N-(6-(2-methylmorpholino)pyridin-2-yl)-6-(N-methylsulfamoyl)-2-(6-azaspiro[2.5]octan-6-yl)nicotinamide], for which the pIC50 is 7.10.

Consider `C[C@@H]1CN(c2cccc(NC(=O)c3ccc(S(N)(=O)=O)nc3N3CCC4(CC3)CC4)n2)CCO1` [Example 224, 2-(6-azaspiro[2.5]octan-6-yl)-N-(6-((2R)-2-methyl-4-morpholinyl)-2-pyridinyl)-6-sulfamoyl-3-pyridinecarboxamide], for which the negative logarithm of the IC50 (pIC50) was 7.16.

`C[C@@H]1CN(c2cccc(NC(=O)c3ccc(S(=O)(=O)NC(C)(C)C)nc3N3CCC4(CC3)CC4)n2)CCO1` [Example 225, 2-(6-azaspiro[2.5]octan-6-yl)-N-(6-((2R)-2-methyl-4-morpholinyl)-2-pyridinyl)-6-((2-methyl-2-propanyl)sulfamoyl)-3-pyridinecarboxamide]: the negative logarithm of the IC50 (pIC50) is 6.99.

With `CC(C)(CO)Nc1ccc(C(=O)Nc2cccc(NCCO)n2)c(N2CCC3(CC2)CC3)n1` [Example 226, 2-(6-azaspiro[2.5]octan-6-yl)-N-(6-((2-hydroxyethyl)amino)-2-pyridinyl)-6-((1-hydroxy-2-methyl-2-propanyl)amino)-3-pyridinecarboxamide], the pIC50 was 6.41.

`Cc1cc(NC(=O)c2ccc(NC(C)(C)CO)nc2N2CCC3(CC2)CC3)nc(N2CCC[C@@H](O)C2)c1` [Example 227, 2-(6-azaspiro[2.5]octan-6-yl)-6-((1-hydroxy-2-methyl-2-propanyl)amino)-N-(6-((3R)-3-hydroxy-1-piperidinyl)-4-methyl-2-pyridinyl)-3-pyridinecarboxamide]: the pIC50 is 6.85.

`CC(C)(CO)Nc1ccc(C(=O)Nc2cccc(N3CCC[C@H](O)C3)n2)c(N2CCC3(CC2)CC3)n1` [Example 228, 2-(6-azaspiro[2.5]octan-6-yl)-6-((1-hydroxy-2-methyl-2-propanyl)amino)-N-(6-((3S)-3-hydroxy-1-piperidinyl)-2-pyridinyl)-3-pyridinecarboxamide]: the pIC50 was 7.16.

Regarding `CC1(O)CCCN(c2cccc(NC(=O)c3ccc(NC(C)(C)CO)nc3N3CCC4(CC3)CC4)n2)C1` (stereo not drawn) [Example 229, 6-((1-hydroxy-2-methylpropan-2-yl)amino)-N-(6-(3-hydroxy-3-methylpiperidin-l-yl)pyridin-2-yl)-2-(6-azaspiro[2.5]octan-6-yl)nicotinamide], the negative logarithm of the IC50 (pIC50) is 6.86.

As to `CC(C)(CO)Nc1ccc(C(=O)Nc2cccc(N3CCCC(O)(CO)C3)n2)c(N2CCC3(CC2)CC3)n1` (centres unmarked) [Example 230, 6-((1-hydroxy-2-methylpropan-2-yl)amino)-N-(6-(3-hydroxy-3-(hydroxymethyl)piperidin-1-yl)pyridin-2-yl)-2-(6-azaspiro[2.5]octan-6-yl)nicotinamide], the pIC50 is 6.94.

In the case of `CC(C)(CO)Nc1ccc(C(=O)Nc2cccc(N3CCCC3(C)CO)n2)c(N2CCC3(CC2)CC3)n1` (centres unmarked) [Example 231, 6-((1-hydroxy-2-methylpropan-2-yl)amino)-N-(6-(2-(hydroxymethyl)-2-methylpyrrolidin-1-yl)pyridin-2-yl)-2-(6-azaspiro[2.5]octan-6-yl)nicotinamide], the pIC50 is 6.87.

Regarding `CN(C(=O)OC(C)(C)C)C1CCCN(c2cccc(NC(=O)c3ccc(NC(C)(C)CO)nc3N3CCC4(CC3)CC4)n2)C1` (centres unmarked) [Example 232, tert-butyl (1-(6-(6-((1-hydroxy-2-methylpropan-2-yl)amino)-2-(6-azaspiro[2.5]octan-6-yl)nicotinamido)pyridin-2-yl)piperidin-3-yl)(methyl)carbamate], the negative logarithm of the IC50 (pIC50) is 6.02.

For the compound `CNC1CCCN(c2cccc(NC(=O)c3ccc(NC(C)(C)CO)nc3N3CCC4(CC3)CC4)n2)C1` (centres unmarked) [Example 233, 6-((1-hydroxy-2-methylpropan-2-yl)amino)-N-(6-(3-(methylamino)piperidin-1-yl)pyridin-2-yl)-2-(6-azaspiro[2.5]octan-6-yl)nicotinamide], the pIC50 is 6.00.

With `CC(C)(CO)Nc1ccc(C(=O)Nc2cccc(N3CCCC(NC(=O)OC(C)(C)C)C3)n2)c(N2CCC3(CC2)CC3)n1` (centres unmarked) [Example 234, tert-butyl (1-(6-(6-((1-hydroxy-2-methylpropan-2-yl)amino)-2-(6-azaspiro[2.5]octan-6-yl)nicotinamido)pyridin-2-yl)piperidin-3-yl)carbamate], the negative-log IC50 (pIC50) is 5.82.

Turning to `CC(C)(CO)Nc1ccc(C(=O)Nc2cccc(N3CCOC(CN)C3)n2)c(N2CCC3(CC2)CC3)n1` (centres unmarked) [Example 235, N-(6-(2-(aminomethyl)morpholino)pyridin-2-yl)-6-((1-hydroxy-2-methylpropan-2-yl)amino)-2-(6-azaspiro[2.5]octan-6-yl)nicotinamide], the negative-log IC50 (pIC50) was 6.45.

As to `CC(C)(CO)Nc1ccc(C(=O)Nc2cccc(N3CCCC(N)C3)n2)c(N2CCC3(CC2)CC3)n1` (centres unmarked) [Example 236, N-(6-(3-aminopiperidin-1-yl)pyridin-2-yl)-6-((1-hydroxy-2-methylpropan-2-yl)amino)-2-(6-azaspiro[2.5]octan-6-yl)nicotinamide], the pIC50 is 6.41.

For the compound `C[C@@H]1CN(c2cccc(NC(=O)c3cnc(NS(=O)(=O)CCO)cc3N3CCC4(CC3)CC4)n2)CCO1` [Example 237], the negative-log IC50 (pIC50) was 7.18.

For `C[C@@H]1CN(c2cccc(NC(=O)c3ccc(S(C)(=O)=O)nc3N3CCC4(CC3)CC4)n2)CCO1` [Example 238, (R)-N-(6-(2-methylmorpholino)pyridin-2-yl)-6-(methylsulfonyl)-2-(6-azaspiro[2.5]octan-6-yl)nicotinamide], the pIC50 is 6.55.

As for `C[C@@H]1CN(c2cccc(NC(=O)c3ccc(CS(C)(=O)=O)nc3N3CCC4(CC3)CC4)n2)CCO1` [Example 239, 2-(6-azaspiro[2.5]octan-6-yl)-N-(6-((2R)-2-methyl-4-morpholinyl)-2-pyridinyl)-6-((methylsulfonyl)methyl)-3-pyridinecarboxamide], the negative logarithm of the IC50 (pIC50) is 7.17.

Take `Cc1cc(NC(=O)c2ccc(CS(C)(=O)=O)nc2N2CCC3(CC2)CC3)nc(N2CCOCC2)c1` [Example 240, 2-(6-azaspiro[2.5]octan-6-yl)-N-(4-methyl-6-(4-morpholinyl)-2-pyridinyl)-6-((methylsulfonyl)methyl)-3-pyridinecarboxamide]: the negative-log IC50 (pIC50) is 6.97.

Consider `CS(=O)(=O)Cc1ccc(C(=O)Nc2cccc(N3CCC[C@@H](O)C3)n2)c(N2CCC3(CC2)CC3)n1` [Example 241, 2-(6-azaspiro[2.5]octan-6-yl)-N-(6-((3R)-3-hydroxy-1-piperidinyl)-2-pyridinyl)-6-((methylsulfonyl)methyl)-3-pyridinecarboxamide], for which the negative-log IC50 (pIC50) was 7.00.

Regarding `O=C(Nc1cccc(N2CCC[C@@H](O)C2)n1)c1ccc(C(O)(CO)C(F)(F)F)nc1N1CCC2(CC1)CC2` (stereo partly drawn) [Example 242, N-(6-((R)-3-hydroxypiperidin-l-yl)pyridin-2-yl)-2-(6-azaspiro[2.5]octan-6-yl)-6-(1,1,1-trifluoro-2,3-dihydroxypropan-2-yl)nicotinamide], the pIC50 is 7.11.

Take `C[C@@H]1CN(c2cccc(NC(=O)c3cnc(NC(C)(C)CO)cc3N3CCC4(CC3)CC4)n2)CCO1` [Example 243, (R)-6-((1-hydroxy-2-methylpropan-2-yl)amino)-N-(6-(2-methylmorpholino)pyridin-2-yl)-4-(6-azaspiro[2.5]octan-6-yl)nicotinamide]: the pIC50 was 6.36.

Consider `CC(c1ccc(C(=O)Nc2cccc(N3CCO[C@H](C)C3)n2)c(N2CCC3(CC2)CC3)n1)S(C)(=O)=O` (stereo partly drawn) [Example 244, N-(6-((R)-2-methylmorpholino)pyridin-2-yl)-6-(1-(methylsulfonyl)ethyl)-2-(6-azaspiro[2.5]octan-6-yl)nicotinamide], for which the pIC50 was 7.29.

For `O=C(Nc1cccnc1N1CCC2(CC1)CC2)c1cccc(N2CCOCC2)n1` [Example 245, N-(2-(6-azaspiro[2.5]oct-6-yl)-3-pyridinyl)-6-(4-morpholinyl)-2-pyridinecarboxamide], the pIC50 is 6.07.

Regarding `CC(O)(c1ccc(NC(=O)c2cccc(N3CCOCC3)n2)c(N2CCC3(CC2)CC3)n1)C(F)(F)F` (centres unmarked) [Example 246, N-(2-(6-Azaspiro[2.5]octan-6-yl)-6-(1,1,1-trifluoro-2-hydroxypropan-2-yl)pyridin-3-yl)-6-morpholinopicolinamide], the pIC50 is 6.53.

As for `C[C@@H]1CN(c2nc(NC(=O)c3ccc(NC(C)(C)CO)nc3N3CCC4(CC3)CC4)ccc2F)CCO1` [Example 247, 2-(6-azaspiro[2.5]octan-6-yl)-N-(5-fluoro-6-((2R)-2-methyl-4-morpholinyl)-2-pyridinyl)-6-((1-hydroxy-2-methyl-2-propanyl)amino)-3-pyridinecarboxamide], the pIC50 was 7.05.

Regarding `O=C(Nc1ccc(NS(=O)(=O)CCO)cc1N1CCC2(CC1)CC2)c1cccc(N2CCC(F)(F)CC2)n1` [Example 248, 6-(4,4-difluoropiperidin-1-yl)-N-(4-((2-hydroxyethyl)sulfonamido)-2-(6-azaspiro[2.5]octan-6-yl)phenyl)picolinamide], the negative-log IC50 (pIC50) was 7.80.
